In the Biogen ADME set (Fang et al. 2023):
≈ marks a conversion by molar mass, not a printed value.

Conditions: for aqueous solubility: pH 6.8

| Compound | MDR1-MDCK efflux ratio | intrinsic clearance, human liver microsomes [mL/min/kg] | intrinsic clearance, rat liver microsomes [mL/min/kg] | aqueous solubility [µg/mL] | fraction unbound, rat plasma |
| --- | --- | --- | --- | --- | --- |
| CN(C)C1(CNC(=O)N2CCCC(C)(C)CC2)CCOCC1 | 16.5 | 8.43 | 120 | 56.9 (≈ 183 µM) | – |
| Cc1cccc(NC(=O)c2noc3c2CCCC3)n1 | – | 197 | 1070 | 17.1 (≈ 66.3 µM) | – |
| CC(C)(C)C(=O)N1CCC(CN2CCCC[C@@H]2CO)CC1 | 14.3 | ≤ 4.74 | 29.4 | 50.1 (≈ 169 µM) | – |
| COc1ccc2c(c1)C=C(CN1CCC(c3cc(-c4cncnc4)cc(C)n3)CC1)CO2 | 1.42 | 49.8 | 201 | 22.9 (≈ 53.3 µM) | – |
| Cc1cc(Nc2nnc(C)s2)cc(C2CN(C(=O)Cc3csc(C)n3)CCO2)n1 (stereo unspecified) | 35.5 | 18.7 | 103 | – | – |
| c1csc(-c2csc3nc(CN4CCOCC4)nc(N4CCc5[nH]ncc5C4)c23)c1 | 83.5 | 559 | 1320 | 49 (≈ 112 µM) | – |
| O=C(Nc1ccccc1)c1c([O-])n(-c2ccccc2)n[n+]1Cc1ccccc1 | 0.868 | – | – | 0.2 (≈ 0.54 µM) | – |
| O=C1CCC(=O)N1CCN1CCCCc2ccccc21 | 0.651 | 122 | 1470 | 55.8 (≈ 205 µM) | – |
| COc1ccc(C(=O)c2ccccc2)c(Oc2nc3c(c(=O)n(C)c(=O)n3C)n2C)c1 | 1.83 | 21.5 | 1510 | 49.3 (≈ 117 µM) | – |
| CN(C(=O)c1cccc(C(=O)O)c1)c1ccccc1 | – | ≤ 4.74 | ≤ 10.7 | – | – |
| Cc1nn(CCNS(=O)(=O)N2CCCCC2)c(C)c1C | 1.53 | 163 | 3200 | – | – |
| O=C(Nc1ccc2sccc2c1)N1CCCN(C(=O)Oc2ccccc2)CC1 | 1.31 | 78.3 | 765 | 37.9 (≈ 95.7 µM) | – |
| O=C(NC1CCCC1)N1CCN(c2nccn3nc4c(c23)CCCC4)CC1 | 2 | 118 | 464 | 17.1 (≈ 46.4 µM) | – |
| Cc1nccc(-c2cccc(NCc3cc(C)on3)c2)n1 | 0.536 | 59.6 | 350 | 46.6 (≈ 166 µM) | – |
| Cc1ccc(S(=O)(=O)N2CCOc3ccncc32)cc1 | 0.71 | 107 | 2090 | – | – |
| CC(C)Cc1cc(CN2CCN(S(=O)(=O)N3CCOCC3)CC2)n[nH]1 | 23.3 | 21.5 | 284 | – | – |
| Cc1ccc2oc([C@H]3CCN(Cc4cccs4)C3)nc2c1 | 0.391 | 127 | 2000 | 26.3 (≈ 88.1 µM) | – |
| COc1ccc(CN2CCC(c3nc(C(C)C)no3)CC2)c(F)c1 | 0.777 | 35 | 1710 | 47.1 (≈ 141 µM) | – |
| Cc1cccc2c1Oc1nc(-c3ccccc3)[nH]c(=S)c1C2 | – | – | – | 0.33 (≈ 1.08 µM) | – |
| Cc1ccc(S(=O)(=O)Nc2ccccc2-c2nc3ccccc3[nH]2)cc1 | – | 122 | 541 | – | – |
| Cn1cc(-c2ccc3nnc(C(F)(F)c4ccc5ncccc5c4)n3n2)cn1 | 9.46 | ≤ 4.74 | 59.2 | 43 (≈ 114 µM) | – |
| O=C(O)c1ccccc1COc1cccc2cccnc12 | 1.76 | ≤ 4.74 | 12.4 | – | – |
| Cc1ccc(C)c(S(=O)(=O)N2CCCN(C3CCC3)CC2)c1 | 0.605 | 214 | 2150 | 57.9 (≈ 179 µM) | – |
| Cc1nc(CN2C[C@@H](c3ccc4c(c3)OCO4)[C@@H]3[C@H]2C2CCN3CC2)co1 | 53.4 | 96.7 | 205 | 48.3 (≈ 131 µM) | – |

Other lines, results leading:

| MDR1-MDCK efflux ratio | intrinsic clearance, human liver microsomes [mL/min/kg] | intrinsic clearance, rat liver microsomes [mL/min/kg] | aqueous solubility [µg/mL] | fraction unbound, rat plasma | Compound |
| --- | --- | --- | --- | --- | --- |
| – | – | – | 25.4 (≈ 85.6 µM) | – | CCN(CC)CCCNc1c2c(nc3ccccc13)CCC2 |
| 26.2 | 77.8 | 1260 | 42.3 (≈ 125 µM) | – | Cc1nc2ccccn2c1CC(=O)NCCCSc1ccccc1 |
| 0.471 | 276 | 1260 | – | – | CCCc1ccc(C(=O)CSc2nncs2)cc1 |
| 7.53 | ≤ 4.74 | 50 | – | – | COCCc1n[nH]c(-c2ccc(N3CCN(C)CC3)cc2)n1 |
| 0.929 | ≤ 4.74 | 31 | – | – | Cc1nnc2ncc(-c3cccc(-c4ccnn4C)c3)cn12 |
| – | ≤ 4.74 | ≤ 10.7 | – | – | NCCc1cnn(Cc2ccccc2)c1 |
| 531 | 96.8 | 765 | – | – | c1nn(C2CCOCC2)cc1Nc1ncc2nnn(-c3ccc4cn[nH]c4c3)c2n1 |
| 0.971 | 27.9 | 375 | 46.2 (≈ 135 µM) | – | CC(C)(C)n1ncc(C(=O)N2CCCn3ncnc32)c1C(F)(F)F |
| 22.8 | 150 | 2010 | – | – | O=C(c1cn(Cc2cncn2Cc2ccc(Br)cc2)cc1-c1cccc2ccccc12)N1CCOCC1 |
| 11.7 | 7.8 | 72.1 | – | – | CC(C)(O)CCn1cc2cc(NC(=O)c3cccc(C(F)F)n3)c(OCC3COC3)cc2n1 |
| – | 39.7 | 95.6 | – | – | O=C(NCCc1ccc(F)cc1)n1ccnc1 |
| 0.716 | ≤ 4.74 | 26.4 | 57 (≈ 166 µM) | – | O=C(NC1CCN(c2ccc(OC(F)(F)F)cc2)CC1)N1CCC1 |
| 0.232 | 26 | 146 | 23 (≈ 87.1 µM) | – | CCc1nc(NC(=O)c2ccccc2F)sc1C |
| – | ≤ 4.74 | 58.9 | 36.4 (≈ 140 µM) | – | O=C(NCc1cccc(O)c1)Nc1ccccc1F |
| 1.23 | 24.8 | 146 | 35.1 (≈ 124 µM) | – | O=C(CCNc1ncccn1)N1CCc2ccccc2C1 |
| 1.13 | 6.66 | 57.2 | – | – | CNc1ncc(CN(C)CCN2CCCCC2)cn1 |
| – | 8.83 | 105 | – | – | Cn1ccc(C(=O)NCCc2cc3nc(-c4ccncc4)ccn3n2)n1 |
| 0.798 | 82.5 | 765 | 19.9 (≈ 85.2 µM) | – | CCCn1ncnc1-c1ccccc1SC |

| MDR1-MDCK efflux ratio | intrinsic clearance, human liver microsomes [mL/min/kg] | intrinsic clearance, rat liver microsomes [mL/min/kg] | aqueous solubility [µg/mL] | fraction unbound, rat plasma | Compound |
| --- | --- | --- | --- | --- | --- |
| 0.773 | 10.2 | 280 | 39.6 (≈ 120 µM) | – | Fc1ccc(NCc2cccc(OCCN3CCOCC3)c2)nc1 |
| 6.82 | ≤ 4.74 | ≤ 10.7 | 48.9 (≈ 154 µM) | – | Cc1c(C(=O)NC2CCN(CC3CCCCC3)CC2)cnn1C |
| 0.541 | 11.2 | 669 | 12.7 (≈ 36.2 µM) | – | Cc1ccc(C2=NC3(CCN(Cc4ccc(F)cc4)CC3)NC2=O)cc1 |
| 2.47 | ≤ 4.74 | ≤ 10.7 | – | – | O=C(NCCc1cnn[nH]1)C1Cc2ccccc2C1 |
| 0.933 | 101 | 631 | – | – | CCCNS(=O)(=O)Nc1ncnc(OCCOc2ncc(Br)cn2)c1-c1ccc(Br)cc1 |
| 19.2 | ≤ 4.74 | ≤ 10.7 | 46.9 (≈ 157 µM) | – | CNC(=O)c1cccc(Oc2ncnc3c2CN(C)CC3)c1 |
| 0.646 | 293 | 1260 | – | – | CCOC(=O)c1cccnc1SCc1cccnc1 |
| 17.2 | 5.64 | 163 | – | – | CCN(Cc1cnn(C(C)C)c1)C(=O)NCCC(C)(C)OC |
| 51.7 | ≤ 4.74 | ≤ 10.7 | 31.5 (≈ 127 µM) | – | O=C(CC1CCCC1)NCc1nnc2n1CCC2 |
| – | – | – | – | 0.313 | C=CCc1ccccc1OCC(O)CNC(C)C (stereo unspecified) |
| 2.82 | ≤ 4.74 | ≤ 10.7 | 59.8 (≈ 241 µM) | – | Cc1nccc(C2(C)CCN(CC(N)=O)CC2)n1 |
| – | 183 | 855 | 48 (≈ 179 µM) | – | CCc1cnc(CCNc2cncc(Cl)n2)s1 |
| 0.273 | 5.3 | 16.1 | – | – | CN(C)C1(CNC(=O)Cn2ccc(=O)cc2)CCCCC1 |
| – | 218 | 2800 | – | – | Fc1cc(CCNc2ncnc3sccc23)c2c(c1)COCO2 |
| 20.6 | ≤ 4.74 | 253 | – | – | Cc1nn(C(F)F)c(C)c1CC(=O)NCCNC(C)(C)C |
| 18.1 | ≤ 4.74 | 27.9 | – | – | O=C(CCc1cn[nH]c1)NCCCn1cc(Cl)cn1 |
| 41.3 | 8.28 | 118 | 66.6 (≈ 169 µM) | – | Cc1cc(C)nc(Nc2ccc(C3CCCN(CC(=O)N4CCCC4)C3)nc2)n1 (stereo unspecified) |
